pIC50: −log10 of the molar value.
Biological target: IGFBP-3 (recombinant human IGF-binding protein 3, rhIGFBP-3) (Homo sapiens, UniProt P17936)
Sequence (P17936 28-291): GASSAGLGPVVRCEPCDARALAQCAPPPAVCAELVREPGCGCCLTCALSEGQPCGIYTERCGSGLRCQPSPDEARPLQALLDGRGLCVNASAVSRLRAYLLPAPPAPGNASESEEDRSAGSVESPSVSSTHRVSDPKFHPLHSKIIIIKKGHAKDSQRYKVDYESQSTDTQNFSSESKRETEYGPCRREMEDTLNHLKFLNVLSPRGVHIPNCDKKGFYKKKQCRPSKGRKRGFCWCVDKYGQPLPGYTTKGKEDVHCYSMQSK
Sequence (P05019 49-118 partner): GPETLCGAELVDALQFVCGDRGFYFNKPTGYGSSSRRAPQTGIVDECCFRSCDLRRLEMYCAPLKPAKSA

pIC50: 8.70
Compound: O=C(O)c1cc2cc(O)c(O)cc2c(C(=O)c2ccc(O)c(O)c2)n1 [NBI-31772, 1-(3,4-dihydroxybenzoyl)-3-hydroxycarbonyl-6,7-dihydroxyisoquinoline]
